Assay results published in patent publication EP1283052A1, “Pharmaceutical composition containing caspase-8 and /or caspase-9 useful for overcoming glucocorticoid- and cancer therapy-induced apoptosis of tumours” (Deutsches Krebsforschungszentrum Stiftung des öffentlichen …, priority 2001, dated 2003).

System: P5, P693 and CEM cells
Experiment: Mitochondrial membrane potential by JC-1 staining and flow cytometry
Type: cell-based, human
Details: 24 h, co-stimulation with cisplatin 2 µg/ml on top of DEX; Fig. 3a
Procedure: • (a) P5, P693 or CEM cells, either untreated (CO) or stimulated with cisplatin (CIS, 2 µg/ml) were incubated in the absence (white bars) or presence (black bars) of DEX (1 µM). 24 h later cells were stained with the cationic dye JC-1 which indicates mitochondrial depolarization by an increase in green fluorescence. The percentage of green-fluorescent cells was determined by flow cytometry. • (b) P5 cells were treated as described above. 6 or 24 h later mitochondrial fractions were prepared and assayed by Western blotting using a monoclonal antibody which specifically detects the 15 kDa cytochrome c protein. The results depicted here have been performed three times with similar outcome.
• (A) Cell culture. […] The mice were given 0.28 mg/L DEX in drinking water, and the amount of water consumed was monitored. […] The tumour volumes were measured using callipers, and calculated using, as an approximation, the formula for volume of a hemi-ellipsoid: π(width^2 x length)/6. […] Early apoptotic changes were identified by staining of cells with fluoresceinthiocyanate (FITC)-conjugated annexin V and propidium iodide (Becton Dickinson, Heidelberg, Germany) and analysed by flow cytometry (FACScan, Becton Dickinson) as described (Herr et al., EMBO J. 16 (1997), 6200-6208) • (E) Immunohistochemistry. […] Protein expression was detected by Western blotting as described (Herr et al., 1997). […]

N.N.[Cl][Pt][Cl] [cisplatin]
percentage of green fluorescence (mitochondrial damage): further enhanced
